Experimental data from paper PMC9487510, “A Novel Oral GyrB/ParE Dual Binding Inhibitor Effective against Multidrug-Resistant Neisseria gonorrhoeae and Other High-Threat Pathogens” (Antimicrobial Agents and Chemotherapy, 2022).
Values after ≈ are worked out from the molar mass of the structure shown.

Legend:
[1] = system: N. gonorrhoeae (ATCC 700825); experiment: Intravaginal infection model, ovariectomized BALB/c mice, strain ATCC 700825; format: in vivo, mouse (BALB/c); conditions: 26 h, IP 48 mg/kg QD, relative to vehicle or baseline
[2] = system: Neisseria gonorrhoeae strain H041; experiment: Estradiol-treated mouse model of cervico-vaginal infection, strain H041; format: in vivo, mouse (BALB/c); conditions: 48 mg/kg, 5 QD, IP; P = 0.007
[3] = system: N. gonorrhoeae clinical isolates; experiment: MIC, agar dilution (CLSI); format: cell-based, Neisseria gonorrhoeae
VISA = experiment: MIC, in vitro susceptibility testing (CLSI); format: cell-based, Staphylococcus aureus; conditions: Staphylococcus aureus, VISA
VRSA = experiment: MIC, in vitro susceptibility testing (CLSI); format: cell-based, Staphylococcus aureus; conditions: Staphylococcus aureus, VRSA
S. aureus VRSA, VRS-2 = experiment: Neutropenic murine thigh infection model; format: in vivo, mouse (ICR); conditions: PO 50 mg/kg BID, 26 h after infection
E. coli = system: E. coli; design: method as in PMID 28483959, PMID 31315953; conditions: cited from earlier work

CNC(C)C1CCC(N)C(OC2C(N)CC(N)C(OC3OCC(C)(O)C(NC)C3O)C2O)O1 (centres unmarked) [GEN, gentamicin]
reduction in the bacterial counts [1]: No significant reduction in the bacterial counts
average CFU per mL of vaginal swab suspension over time [2]: significantly different than the vehicle control group

CC1(C)S[C@@H]2[C@H](NC(=O)Cc3ccccc3)C(=O)N2[C@H]1C(=O)O [Pen, penicillin]
MIC50 ([3]; 96 clinical isolates): 1 µg/mL (≈ 2.99 µM)
MIC90 ([3]; 96 clinical isolates): 2 µg/mL (≈ 5.98 µM)
MIC range ([3]; 96 clinical isolates): <0.008 to 4 µg/mL
MIC ([3]; strain CDC1 (GCREF2012 016)): 1 µg/mL (≈ 2.99 µM)
MIC ([3]; strain CDC2 (GCREF2012 045)): 1 µg/mL (≈ 2.99 µM)
MIC ([3]; strain CDC3 (GCREF2013 013)): 1 µg/mL (≈ 2.99 µM)
MIC ([3]; strain CDC4 (GCREF2013 030)): 1 µg/mL (≈ 2.99 µM)
MIC ([3]; strain CDC5 (GCREF2012 001)): 1 µg/mL (≈ 2.99 µM)
MIC ([3]; strain CDC6 (GCREF2012 002)): 1 µg/mL (≈ 2.99 µM)
MIC ([3]; strain CDC8 (GCREF2012 004)): 0.25 µg/mL (≈ 0.748 µM)
MIC ([3]; strain CDC9 (GCREF2012 005)): 1 µg/mL (≈ 2.99 µM)
MIC ([3]; strain CDC10 (GCREF2012 006)): 1 µg/mL (≈ 2.99 µM)
MIC ([3]; strain CDC11 (GCREF2012 007)): 1 µg/mL (≈ 2.99 µM)
MIC ([3]; strain CDC12 (GCREF2012 008)): 1 µg/mL (≈ 2.99 µM)
MIC ([3]; strain CDC13 (GCREF2012 009)): 1 µg/mL (≈ 2.99 µM)
MIC ([3]; strain CDC14 (GCREF2012 010)): 1 µg/mL (≈ 2.99 µM)
MIC ([3]; strain CDC15 (GCREF2012 011)): 0.125 µg/mL (≈ 0.374 µM)
MIC ([3]; strain CDC16 (GCREF2012 012)): 2 µg/mL (≈ 5.98 µM)
MIC ([3]; strain CDC18 (GCREF2012 014)): 1 µg/mL (≈ 2.99 µM)
MIC ([3]; strain CDC19 (GCREF2012 015)): 0.25 µg/mL (≈ 0.748 µM)
MIC ([3]; strain CDC20 (GCREF2012 017)): 0.125 µg/mL (≈ 0.374 µM)
MIC ([3]; strain CDC21 (GCREF2012 018)): 1 µg/mL (≈ 2.99 µM)
MIC ([3]; strain CDC22 (GCREF2012 019)): 0.25 µg/mL (≈ 0.748 µM)
MIC ([3]; strain CDC23 (GCREF2012 020)): 1 µg/mL (≈ 2.99 µM)
MIC ([3]; strain CDC24 (GCREF2012 021)): 1 µg/mL (≈ 2.99 µM)
MIC ([3]; strain CDC25 (GCREF2012 022)): 2 µg/mL (≈ 5.98 µM)
MIC ([3]; strain CDC26 (GCREF2012 023)): 0.25 µg/mL (≈ 0.748 µM)
MIC ([3]; strain CDC27 (GCREF2012 024)): 1 µg/mL (≈ 2.99 µM)
MIC ([3]; strain CDC28 (GCREF2012 025)): 1 µg/mL (≈ 2.99 µM)
MIC ([3]; strain CDC29 (GCREF2012 026)): 1 µg/mL (≈ 2.99 µM)
MIC ([3]; strain CDC30 (GCREF2012 027)): 1 µg/mL (≈ 2.99 µM)
MIC ([3]; strain CDC31 (GCREF2012 028)): 2 µg/mL (≈ 5.98 µM)
MIC ([3]; strain CDC32 (GCREF2012 029)): 1 µg/mL (≈ 2.99 µM)
MIC ([3]; strain CDC33 (GCREF2012 030)): 1 µg/mL (≈ 2.99 µM)
MIC ([3]; strain CDC34 (GCREF2012 031)): 1 µg/mL (≈ 2.99 µM)
MIC ([3]; strain CDC35 (GCREF2012 032)): 2 µg/mL (≈ 5.98 µM)
MIC ([3]; strain CDC36 (GCREF2012 033)): 0.25 µg/mL (≈ 0.748 µM)
MIC ([3]; strain CDC37 (GCREF2012 034)): 1 µg/mL (≈ 2.99 µM)
MIC ([3]; strain CDC38 (GCREF2012 035)): 1 µg/mL (≈ 2.99 µM)
MIC ([3]; strain CDC39 (GCREF2012 036)): 2 µg/mL (≈ 5.98 µM)
MIC ([3]; strain CDC40 (GCREF2012 037)): 1 µg/mL (≈ 2.99 µM)
MIC ([3]; strain CDC41 (GCREF2012 038)): 2 µg/mL (≈ 5.98 µM)
MIC ([3]; strain CDC42 (GCREF2012 039)): 2 µg/mL (≈ 5.98 µM)
MIC ([3]; strain CDC43 (GCREF2012 040)): 2 µg/mL (≈ 5.98 µM)
MIC ([3]; strain CDC45 (GCREF2012 042)): 2 µg/mL (≈ 5.98 µM)
MIC ([3]; strain CDC46 (GCREF2012 043)): 1 µg/mL (≈ 2.99 µM)
MIC ([3]; strain CDC47 (GCREF2012 044)): 1 µg/mL (≈ 2.99 µM)
MIC ([3]; strain CDC48 (GCREF2012 046)): 1 µg/mL (≈ 2.99 µM)
MIC ([3]; strain CDC49 (GCREF2012 047)): 2 µg/mL (≈ 5.98 µM)
MIC ([3]; strain CDC50 (GCREF2012 048)): 2 µg/mL (≈ 5.98 µM)
MIC ([3]; strain CDC51 (GCREF2012 049)): 2 µg/mL (≈ 5.98 µM)
MIC ([3]; strain CDC52 (GCREF2012 050)): 2 µg/mL (≈ 5.98 µM)
MIC ([3]; strain CDC53 (GCREF2012 051)): 2 µg/mL (≈ 5.98 µM)
MIC ([3]; strain CDC54 (GCREF2012 052)): 2 µg/mL (≈ 5.98 µM)
MIC ([3]; strain CDC55 (GCREF2013 001)): 1 µg/mL (≈ 2.99 µM)
MIC ([3]; strain CDC56 (GCREF2013 002)): 1 µg/mL (≈ 2.99 µM)
MIC ([3]; strain CDC57 (GCREF2013 003)): 1 µg/mL (≈ 2.99 µM)
MIC ([3]; strain CDC58 (GCREF2013 004)): 2 µg/mL (≈ 5.98 µM)
MIC ([3]; strain CDC59 (GCREF2013 044)): 2 µg/mL (≈ 5.98 µM)
MIC ([3]; strain CDC60 (GCREF2013 005)): 4 µg/mL (≈ 12 µM)
MIC ([3]; strain CDC61 (GCREF2013 006)): 4 µg/mL (≈ 12 µM)
MIC ([3]; strain CDC62 (GCREF2013 007)): 0.25 µg/mL (≈ 0.748 µM)
MIC ([3]; strain CDC64 (GCREF2013 009)): 0.5 µg/mL (≈ 1.5 µM)
MIC ([3]; strain CDC65 (GCREF2013 010)): 0.5 µg/mL (≈ 1.5 µM)
MIC ([3]; strain CDC66 (GCREF2013 011)): 0.25 µg/mL (≈ 0.748 µM)
MIC ([3]; strain CDC67 (GCREF2013 014)): 0.5 µg/mL (≈ 1.5 µM)
MIC ([3]; strain CDC68 (GCREF2013 016)): 1 µg/mL (≈ 2.99 µM)
MIC ([3]; strain CDC69 (GCREF2013 017)): 1 µg/mL (≈ 2.99 µM)
MIC ([3]; strain CDC70 (GCREF2013 018)): 2 µg/mL (≈ 5.98 µM)
MIC ([3]; strain CDC71 (GCREF2013 019)): 0.25 µg/mL (≈ 0.748 µM)
MIC ([3]; strain CDC72 (GCREF2013 020)): 2 µg/mL (≈ 5.98 µM)
MIC ([3]; strain CDC73 (GCREF2013 021)): 0.5 µg/mL (≈ 1.5 µM)
MIC ([3]; strain CDC74 (GCREF2013 022)): 0.25 µg/mL (≈ 0.748 µM)
MIC ([3]; strain CDC75 (GCREF2013 023)): 0.5 µg/mL (≈ 1.5 µM)
MIC ([3]; strain CDC76 (GCREF2013 024)): 0.5 µg/mL (≈ 1.5 µM)
MIC ([3]; strain CDC77 (GCREF2013 025)): 0.125 µg/mL (≈ 0.374 µM)
MIC ([3]; strain CDC78 (GCREF2013 026)): 0.5 µg/mL (≈ 1.5 µM)
MIC ([3]; strain CDC79 (GCREF2013 027)): 1 µg/mL (≈ 2.99 µM)
MIC ([3]; strain CDC80 (GCREF2013 028)): 2 µg/mL (≈ 5.98 µM)
MIC ([3]; strain CDC81 (GCREF2013 029)): 2 µg/mL (≈ 5.98 µM)
MIC ([3]; strain CDC82 (GCREF2013 031)): 1 µg/mL (≈ 2.99 µM)
MIC ([3]; strain CDC83 (GCREF2013 032)): 0.25 µg/mL (≈ 0.748 µM)
MIC ([3]; strain CDC84 (GCREF2013 033)): 0.25 µg/mL (≈ 0.748 µM)
MIC ([3]; strain CDC87 (GCREF2013 036)): 2 µg/mL (≈ 5.98 µM)
MIC ([3]; strain CDC88 (GCREF2013 037)): 2 µg/mL (≈ 5.98 µM)
MIC ([3]; strain CDC89 (GCREF2013 038)): 1 µg/mL (≈ 2.99 µM)
MIC ([3]; strain CDC90 (GCREF2013 039)): 2 µg/mL (≈ 5.98 µM)
MIC ([3]; strain CDC91 (GCREF2013 040)): 2 µg/mL (≈ 5.98 µM)
MIC ([3]; strain CDC92 (GCREF2013 041)): 2 µg/mL (≈ 5.98 µM)
MIC ([3]; strain CDC93 (GCREF2013 042)): 1 µg/mL (≈ 2.99 µM)
MIC ([3]; strain CDC94 (GCREF2013 043)): 0.25 µg/mL (≈ 0.748 µM)
MIC ([3]; strain CDC95 (GCREF2013 045)): 2 µg/mL (≈ 5.98 µM)
MIC ([3]; strain CDC96 (GCREF2013 046)): 1 µg/mL (≈ 2.99 µM)
MIC ([3]; strain CDC97 (GCREF2013 047)): 1 µg/mL (≈ 2.99 µM)
MIC ([3]; strain CDC98 (GCREF2013 048)): 0.25 µg/mL (≈ 0.748 µM)
MIC ([3]; strain CDC99 (GCREF2013 012)): 0.25 µg/mL (≈ 0.748 µM)
MIC ([3]; strain CDC100 (GCREF2013 015)): 1 µg/mL (≈ 2.99 µM)

CO[C@H]1/C=C/O[C@@]2(C)Oc3c(C)c(O)c4c(O)c(c(/C=N/N5CCN(C)CC5)c(O)c4c3C2=O)NC(=O)/C(C)=C\C=C\[C@H](C)[C@H](O)[C@@H](C)[C@@H](O)[C@@H](C)[C@H](OC(C)=O)[C@@H]1C [Rif, rifampicin]
MIC (VISA; strain 2 11 43): < 0.078 µg/mL
MIC (VISA; strain 2 11 56): > 10 µg/mL
MIC (VISA; strain 2 11 57): < 0.078 µg/mL
MIC (VISA; strain 2 11 61): < 0.078 µg/mL
MIC (VISA; strain 2 11 71): > 10 µg/mL
MIC (VISA; strain 2 11 78): < 0.078 µg/mL
MIC (VISA; strain 2 11 86): > 10 µg/mL
MIC (VISA; strain 2 13 52): > 10 µg/mL
MIC (VRSA; strain 2 25 23): < 0.078 µg/mL
MIC (VRSA; strain 2 25 24): < 0.078 µg/mL
MIC (VRSA; strain 2 25 25): < 0.078 µg/mL
MIC (VRSA; strain 2 25 26): < 0.078 µg/mL
MIC (VRSA; strain 2 25 27): < 0.078 µg/mL
MIC (VRSA; strain 2 25 28): < 0.078 µg/mL
MIC (VRSA; strain VRS2 (VRS-2)): > 10 µg/mL

CC(=O)NC[C@H]1CN(c2ccc(N3CCOCC3)c(F)c2)C(=O)O1 [linezolid]
bacterial count reduction in thigh (S. aureus VRSA, VRS-2): 3.41 log10

C[C@@H]1CN2c3c(cc4c(N5C(=O)OC[C@@H]5C)noc4c3F)CC3(C(=O)NC(=O)NC3=O)[C@H]2[C@H](C)O1 [zoliflodacin]
MIC (E. coli): 4 µg/mL (≈ 8.21 µM)
